From the supplement of paper PMC10307832

compound: CC1(C)CCC(CN2CCN(c3ccc(C(=O)NS(=O)(=O)c4ccc(NCC5CCOCC5)c([N+](=O)[O-])c4)c(Oc4cnc5[nH]ccc5c4)c3)CC2)=C(c2ccc(Cl)cc2)C1 [Venetoclax] + CC1(C)CCC(c2ccc(Cl)cc2)=C(CN2CCN(c3ccc(C(=O)NS(=O)(=O)c4ccc(N[C@H](CCN5CCOCC5)CSc5ccccc5)c(S(=O)(=O)C(F)(F)F)c4)cc3)CC2)C1 [Navitoclax] (partner 0.5 µM); experiment: relative viability (nuclei count vs DMSO), 5 days (fraction); higher = more cells survive; conditions: first compound 0.01 µM
Method in brief: (§1)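 Lung cancer cell lines, seeded in 1536-well plates, were treated the following day by pin tool with a single drug or with five library-drug doses (not always all listed) in √10 steps on top of a fixed anchor-drug dose. Cells were fixed and nuclei stained in one step after 5 days, and nuclei were counted. Relative viability is the nuclei count for treated wells divided by that for vehicle wells, reported as medians of duplicate plates.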

Cell Line	relative viability
NCI-H1651	1.06
NCI-H1944	1.03
NCI-H2009	1.14
SW 1573	0.877
SK-LU-1	0.502

same assay, conditions: first compound 0.03162 µM

Cell Line	relative viability
NCI-H1651	0.964
NCI-H1944	1.09
NCI-H2009	1.14
SW 1573	1.02
SK-LU-1	0.994

same assay, conditions: first compound 0.1 µM

Cell Line	relative viability
NCI-H1651	0.964
NCI-H1944	0.99
NCI-H2009	1.13
SW 1573	0.971
SK-LU-1	0.945

same assay, conditions: first compound 0.3162 µM

Cell Line	relative viability
NCI-H1651	1.06
NCI-H1944	1.06
NCI-H2009	1.15
SW 1573	1.03
SK-LU-1	0.729

same assay, conditions: first compound 1 µM

Cell Line	relative viability
NCI-H1651	1.09
NCI-H1944	1.09
NCI-H2009	1.05
SW 1573	0.997
SK-LU-1	0.804

compound: Cn1cnc2c(F)c(Nc3ccc(Br)cc3Cl)c(C(=O)NOCCO)cc21 [Selumetinib] + CC1(C)CCC(c2ccc(Cl)cc2)=C(CN2CCN(c3ccc(C(=O)NS(=O)(=O)c4ccc(N[C@H](CCN5CCOCC5)CSc5ccccc5)c(S(=O)(=O)C(F)(F)F)c4)cc3)CC2)C1 [Navitoclax] (partner 0.5 µM); experiment: as above; conditions: first compound 0.02 µM
Method in brief: as §1

Cell Line	relative viability
NCI-H1651	1.1
NCI-H1944	0.97
NCI-H2009	1.07
SW 1573	0.965
SK-LU-1	0.795

same assay, conditions: first compound 0.06325 µM

Cell Line	relative viability
NCI-H1651	0.941
NCI-H1944	0.945
NCI-H2009	0.935
SW 1573	0.853
SK-LU-1	0.791

same assay, conditions: first compound 0.2 µM

Cell Line	relative viability
NCI-H1651	0.887
NCI-H1944	0.756
NCI-H2009	0.673
SW 1573	0.716
SK-LU-1	1.24

same assay, conditions: first compound 0.6325 µM

Cell Line	relative viability
NCI-H1651	0.846
NCI-H1944	0.779
